Counter-ions that a name gives are not always drawn.
Assays:
DU145 = test: Growth inhibition, neutral red assay, DU145; assay type: cell-based, human; conditions: free base, five days
Description: (§1) Compound I's activity is not confined to activity against colon cancer cell lines or animal models of colon cancer. It has a broad range of anti-neoplastic effects in various neoplastic cell lines. Various types of human cancer cell lines were propagated under sterile conditions in RPMI 1640 medium with 10% fetal bovine serum, 2 mM L-glutamine and sodium bicarbonate. To determine growth inhibitory effects of Compound I, cells were seeded in 96-well plates at a density of 1000 cells per well. Twenty-four hours after plating, the cells were dosed with various concentrations of the free base of Compound I solubilized in DMSO (final concentration 0.1%). The effect of the drug on tumor cell growth was determined using the neutral red cytotoxicity assay following five days of continuous treatment. Neutral red is a dye that is selectively taken up by viable cells by an ATP-dependent transport mechanism.

[1] = test system: aberrant crypt foci (ACF) in colon; test: Azoxymethane-induced aberrant crypt foci model; assay type: in vivo, rat; conditions: for Mean ACF/colon (+ SE): free base, 5 weeks
Description: The growth inhibition IC50 value obtained for Compound I was 0.7 μM in the SW-480 cell line. […] This established rodent model of azoxymethane (“AOM”)-induced carcinogenesis was used to assess the effects of Compound I (free base and salt) on colon cancer development in vivo. ACF are precursors to colonic tumors, and ACF inhibition is predictive of chemo-preventive efficacy.
In the rats in this experiment, ACF initiation was achieved by two consecutive weekly injections of the carcinogen. Compound I was administered one week prior to ACF initiation and for the duration of the experiment. ACFs were scored after 5 weeks of treatment. Compound I was administered orally to male Fisher 344 rats in the rat chow. Daily food consumption (mg/kg body weight) varied over the course of the study, and therefore Compound I dose was expressed a grams per kg of diet to provide a basis of comparison between doses. […] The experimental groups gained less weight than the controls, which was indicative of bioavailability. However, the weight differences were less than 10% and not considered to affect ACF formation.
The free base of Compound I inhibited ACF formation as measured by a reduction of crypts per colon. With the exception of the low dose group (only 0.5 g/kg diet), the differences between treatment and control groups were substantial, and statistically significant in the case of the 1.0 and 2.0 g/kg diet group.

NCI-H82 = test: Growth inhibition, neutral red assay, NCI-H82; assay type: cell-based, human; conditions: free base, five days
Description: as §1

[2] = test system: LNCaP prostate tumor cell line; test: Histone-associated DNA fragmentation in prostate tumor cells; assay type: cell-based; conditions: 50 μM free base, after 24 hours, sustained up to 4 days
Description: The androgen-sensitive prostate tumor cell line, LNCaP (from ATCC (Rockville, Md.)) was propogated under standard conditions using […] medium containing 5% fetal calve serum and 2 mM glutamine. Primary prostate epithelial cell cultures (PrEC) derived from normal prostate (from Clonetics Inc. (San Diego, Calif.)) were grown under the same conditions as the tumor cell line except a serum-free medium optimized for the growth of such cultures was used (Clonetics Inc). For the experiments, LNCaP or PrEC cells were seeded in 96 well plates at a density of 10,000 cells per well. After 24 hours, the cells were treated with either vehicle (0.1% DMSO) or 50 μM Compound I (free base) solubilized in DMSO. After various drug treatment times (4, 24, 48, 72, or 99 hours) the cells were lysed and processed for measurement of histone-associated DNA as an indicator of apoptotic cell death (see, Piazza et al., Cancer Research 57: 2452-2459, 1997).
This is in marked contrast to conventional chemotherapeutics that induce apoptosis or necrosis in rapidly growing normal and neoplastic cells alike.

RPMI-8226 = test: Growth inhibition, neutral red assay, RPMI-8226; assay type: cell-based; conditions: Homo sapiens, HCl salt
Description: as §1

HCT-15 = test: Growth inhibition, neutral red assay, HCT-15; assay type: cell-based, human; conditions: free base, five days
Description: as §1

[3] = test system: PDE4 purified from human colon HT-29 cultured tumor cells; test: PDE4 inhibition assay; assay type: biochemical; conditions: HT-29 cell enzyme
[4] = test system: new polyps in patients with adenomatous polyposis coli; test: Clinical prevention trial in APC patients; assay type: in vivo, human
From the text: The first clinical trial involved patients with APC.
using exisulind. In that study, each patient had already had his/her colon removed, except for a small section of colon adjacent the rectum (where the small intestine was attached) to preserve rectal function. However, such a patient commonly forms polyps in the small remaining colonic section, which polyps require periodic removal (e.g., by electrocautery).
That trial where exisulind was selected was a prevention trial designed to evaluate the anti-neoplastic characteristics of the drug by comparing the cumulative number of new polyps formed over twelve months by the drug and placebo groups. Eligible patients were those who form between 9 and 44 polyps per year. Patients were fully ablated (had all polyps removed) at the start of the study, at the end of 6 months and at the end of 12 months. The study enrolled thirty-four eligible patients. […] Based on the median number of polyps produced in the first six months of the study, patients treated with exisulind developed approximately one-third the number of polyps as patients treated with placebo (median values 9 polyps/year and 26 polyps/year, respectively; p=0.013). […]

[5] = test system: HT-29 human colon carcinoma cell line; test: Growth inhibition, SRB assay, HT-29; assay type: cell-based; parameters: Growth Inhibition: key to the marks not given beside the values

CC1=C(CC(=O)NCc2ccccc2)c2cc(F)ccc2/C1=C\c1ccncc1 [Compound I, (Z)-5-fluoro-2-methyl-(4-pyridylidene)-3-(N-benzyl)indenylacetamide hydrochloride]
GI50 (DU145; Homo sapiens, DU-145, 120 h): 1.6 µM | GI90 μM, DU145 (DU145): 2.8 µM | ACF % Control ([1]; 0.5 g/kg diet): 100% | Mean ACF/colon (+ SE) ([1]; 0.5 g/kg diet): 149 ± 14 | ACF % Control ([1]; 1 g/kg diet): 75% | Mean ACF/colon (+ SE) ([1]; 1 g/kg diet): 111 ± 9 | ACF % Control ([1]; 1.5 g/kg diet): 89% | Mean ACF/colon (+ SE) ([1]; 1.5 g/kg diet): 132 ± 4 | ACF % Control ([1]; 2.0 g/kg diet): 72% | Mean ACF/colon (+ SE) ([1]; 2.0 g/kg diet): 107 ± 15 | body weight differences versus controls ([1]; male Fisher 344 rats, drug in chow): less than 10% | GI50 (NCI-H82; Homo sapiens, NCI-H82, 120 h): 1.7 µM | GI90 μM, NCI-H82 (NCI-H82): 5.8 µM | histone-associated fragmented DNA in LNCaP [2]: significant increase in fragmented DNA | GI50 (RPMI-8226): 1.2 µM | GI50 (HCT-15; Homo sapiens, HCT-15, 120 h): 1.7 µM | GI90 μM, HCT-15 (HCT-15): 3.0 µM

CC1=C(CC(=O)O)c2cc(F)ccc2/C1=C\c1ccc(S(C)(=O)=O)cc1 [Exisulind, 5-fluoro-2-methyl-1-(p-methylsulfonylbenzylidene)-3-indenylacetic acid]
IC50 [3]: 181000 nM | median number of polyps produced, entire 12 months ([4]; entire 12 months of the study): 18 polyps/year | median number of polyps produced, first six months ([4]; first six months of the study): 9 polyps/year | IC50 ([5]; Homo sapiens, HT-29, 144 h, six days, SRB assay, read-out: IC50, growth of HT-29 cells): ~200000 nM | inhibition at 100 µM ([5]; Homo sapiens, HT-29, read-out: Growth-inhibitory activity, % Inhibition at 100 μM): < 50% | Growth Inhibition ([5]; qualitative activity profile): ++

— US20030109418A1, “Methods for identifying compounds for inhibition of neoplastic lesions, and pharmaceutical compositions containing such compounds” (priority 1999, published 2003)
